Measurements: US20190337924A1, “SUBSTITUTED HYDANTOIN AND THIOHYDANTOIN DERIVATIVES AS ANDROGEN RECEPTOR ANTAGONISTS” (Janssen Pharmaceutica NV, priority 2016, published 2019)
Structures can show the parent of a compound that is named as a salt.

What was measured:
VCaP cells = experiment: Prostate Cancer Cell Viability Assay-VCaP; assay type: cell-based; details: Homo sapiens, 120 h, 10% Charcoal Stripped Serum, 5 days, CellTiter-Glo, * n = 1
Procedure: VCaP cells were counted and seeded into black 384-well plates with clear bottoms at a concentration of 125,000 cells per mL in phenol red-free DMEM containing 10% Charcoal Stripped Serum. 16 μL of the suspension was added per well and incubated for 48 h to allow the cells to adhere. After 48 hours, a 12 point serial semilog dilution of each compound was added to the cells in 16 μL at a final concentration of 100 µM to 0.0003 μM. The compounds of Formula (I) were also run in antagonist mode using 30 pM R1881 in which 8 μL of the compound was added to the cells followed by 8 μL of R1881. After 5 days of incubation at 37° C., 16 μL Of CellTiter-Glo (Promega) was added to the cells and the relative luminescence units (RLUs) of each well determined using the Envision. The percent stimulation and % inhibition were determined for each sample and plotted using GraphPad Prism.

LNCaP WT = experiment: LNCaP Proliferation Assay, LNCaP WT; assay type: cell-based; details: Homo sapiens, 96 h, 1% CSS, 4 days, CellTiter-Glo, normalized to 0.1 nM R1881 stimulation
Procedure: (§1) LNCaP cells were expanded in RPMI 10% FBS in T150 flasks. The cells were dislodged with 0.25% Trypsin, washed in complete media, centrifuged (300 g, 3 min), and the supernatant aspirated. The cells were resuspended in RPMI phenol-red free media with 1% charcoal-stripped serum (CSS) and counted using a ViCELL (Beckman-Coulter). 7500 cells were added to each well of a white optical bottom 384-well plate and incubated for 2 days at 37° C. 5% CO2. Compound dilutions were prepared in RPMI CSS using 50 mM stock solutions and added to the cells either alone (agonist mode) or in combination with 0.1 nM R1881 (antagonist mode). The plates were incubated for 4 days, followed by addition of CellTiter-Glo Luminescent Cell Viability kit reagent (Promega). The plates were placed on a shaker at 3000 rpm for 10 minutes and then read on an EnVision plate reader (Perkin Elmer) using Luminescence assay default settings. The data was analyzed, normalized to 0.1 nM R1881 stimulation, and plotted in GraphPad Prism.

LNCaP F876L = experiment: LNCaP Proliferation Assay, LNCaP F876L; assay type: cell-based; details: Homo sapiens, 96 h, 1% CSS, 4 days, CellTiter-Glo, normalized to 0.1 nM R1881 stimulation
Procedure: as §1

Row | Structure (SMILES) | IC50 (VCaP cells) [µM] | IC50 (LNCaP WT) [µM] | IC50 (LNCaP F876L) [µM] | melting point [°C]
1 | CC1(C)C(=O)N(c2ccc(C#N)c(C(F)(F)F)c2)C(=S)N1c1ccc(OC2CCNCC2)cc1 [Compound 1, 4-(4,4-Dimethyl-5-oxo-3-(4-(piperidin-4-yloxy)phenyl)-2-thioxoimidazolidin-1-yl)-2-(trifluoromethyl)benzonitrile] | 2.31 |  |  | 
2 | CN1CCC(Oc2ccc(N3C(=S)N(c4ccc(C#N)c(C(F)(F)F)c4)C(=O)C3(C)C)cc2)CC1 [Compound 2, 4-(4,4-Dimethyl-3-(4-((1-methylpiperidin-4-yl)oxy)phenyl)-5-oxo-2-thioxoimidazolidin-1-yl)-2-(trifluoromethyl)benzonitrile hydrochloride] |  | 1.37 | 1.31 | 
3 | CC1(C)C(=O)N(c2ccc(C#N)c(C(F)(F)F)c2)C(=S)N1c1ccc(OC2CCNCC2)nc1 [Compound 3, 4-(4,4-Dimethyl-5-oxo-3-(6-(piperidin-4-yloxy)pyridin-3-yl)-2-thioxoimidazolidin-1-yl)-2-(trifluoromethyl)benzonitrile hydrochloride] | 4.86 |  |  | 
4 | CN1CCC(Oc2ccc(N3C(=S)N(c4ccc(C#N)c(C(F)(F)F)c4)C(=O)C3(C)C)cn2)CC1 [Compound 4, 4-(4,4-Dimethyl-3-(6-((1-methylpiperidin-4-yl)oxy)pyridin-3-yl)-5-oxo-2-thioxoimidazolidin-1-yl)-2-(trifluoromethyl)benzonitrile hydrochloride] | 1.66 | 0.46 | 0.85 | 
5 | CC1(C)C(=O)N(c2ccc(C#N)c(C(F)(F)F)c2)C(=S)N1c1cnc(OC2CCNCC2)nc1 [Compound 5, 4-(4,4-Dimethyl-5-oxo-3-(2-(piperidin-4-yloxy)pyrimidin-5-yl)-2-thioxoimidazolidin-1-yl)-2-(trifluoromethyl)benzonitrile] | 13.2 | 1.04 | 0.95 | 239
6 | CN1CCC(Oc2ncc(N3C(=S)N(c4ccc(C#N)c(C(F)(F)F)c4)C(=O)C3(C)C)cn2)CC1 [Compound 6, 4-(4,4-Dimethyl-3-(2-((1-methylpiperidin-4-yl)oxy)pyrimidin-5-yl)-5-oxo-2-thioxoimidazolidin-1-yl)-2-(trifluoromethyl)benzonitrile] | 18.4 |  |  | 204.9
7 | CC1(C)C(=O)N(c2ccc(C#N)c(Cl)c2)C(=S)N1c1ccc(OC2CCNCC2)cc1 [Compound 7, 2-Chloro-4-(4,4-dimethyl-5-oxo-3-(4-(piperidin-4-yloxy)phenyl)-2-thioxoimidazolidin-1-yl)benzonitrile hydrochloride] | 1.44 | 10 | 31.2 | 
8 | CN1CCC(Oc2ccc(N3C(=S)N(c4ccc(C#N)c(Cl)c4)C(=O)C3(C)C)cc2)CC1 [Compound 8, 2-Chloro-4-(4,4-dimethyl-3-(4-((1-methylpiperidin-4-yl)oxy)phenyl)-5-oxo-2-thioxoimidazolidin-1-yl)benzonitrile hydrochloride] | 3.48 |  |  | 
9 | CC1(C)C(=O)N(c2ccc(C#N)c(Cl)c2)C(=S)N1c1ccc(OC2CCNCC2)nc1 [Compound 9, 2-Chloro-4-(4,4-dimethyl-5-oxo-3-(6-(piperidin-4-yloxy)pyridin-3-yl)-2-thioxoimidazolidin-1-yl)benzonitrile hydrochloride] | 1.68 |  |  | 
10 | CN1CCC(Oc2ccc(N3C(=S)N(c4ccc(C#N)c(Cl)c4)C(=O)C3(C)C)cn2)CC1 [Compound 10, 2-Chloro-4-(4,4-dimethyl-3-(6-((1-methylpiperidin-4-yl)oxy)pyridin-3-yl)-5-oxo-2-thioxoimidazolidin-1-yl)benzonitrile hydrochloride] | 5.54 | 0.46 | 0.83 | 
11 | N#Cc1ccc(N2C(=O)C3(CCC3)N(c3ccc(OC4CCNCC4)cc3)C2=S)cc1C(F)(F)F [Compound 11, 4-(8-Oxo-5-(4-(piperidin-4-yloxy)phenyl)-6-thioxo-5,7-diazaspiro[3.4]octan-7-yl)-2-(trifluoromethyl)benzonitrile] | 1.06 |  |  | 172.4
12 | CN1CCC(Oc2ccc(N3C(=S)N(c4ccc(C#N)c(C(F)(F)F)c4)C(=O)C34CCC4)cc2)CC1 [Compound 12, 4-(5-(4-((1-Methylpiperidin-4-yl)oxy)phenyl)-8-oxo-6-thioxo-5,7-diazaspiro[3.4]octan-7-yl)-2-(trifluoromethyl)benzonitrile] | 21 |  |  | 99.3
13 | N#Cc1ccc(N2C(=O)C3(CCC3)N(c3ccc(OC4CCNCC4)nc3)C2=S)cc1C(F)(F)F [Compound 13, 4-(8-Oxo-5-(6-(piperidin-4-yloxy)pyridin-3-yl)-6-thioxo-5,7-diazaspiro[3.4]octan-7-yl)-2-(trifluoromethyl)benzonitrile hydrochloride] | 0.54 | 109 |  | 
14 | CN1CCC(Oc2ccc(N3C(=S)N(c4ccc(C#N)c(C(F)(F)F)c4)C(=O)C34CCC4)cn2)CC1 [Compound 14, 4-(5-(6-((1-Methylpiperidin-4-yl)oxy)pyridin-3-yl)-8-oxo-6-thioxo-5,7-diazaspiro[3.4]octan-7-yl)-2-(trifluoromethyl)benzonitrile] | 13.1 | 2.44 | 1.25 | 
15 | N#Cc1ccc(N2C(=O)C3(CCC3)N(c3cnc(OC4CCNCC4)nc3)C2=S)cc1C(F)(F)F [Compound 15, 4-(8-Oxo-5-(2-(piperidin-4-yloxy)pyrimidin-5-yl)-6-thioxo-5,7-diazaspiro[3.4]octan-7-yl)-2-(trifluoromethyl)benzonitrile] |  | 3.43 | 1.53 | 137.4
16 | CN1CCC(Oc2ncc(N3C(=S)N(c4ccc(C#N)c(C(F)(F)F)c4)C(=O)C34CCC4)cn2)CC1 [Compound 16, 4-(5-(2-((1-Methylpiperidin-4-yl)oxy)pyrimidin-5-yl)-8-oxo-6-thioxo-5,7-diazaspiro[3.4]octan-7-yl)-2-(trifluoromethyl)benzonitrile] | 5.29 |  |  | 161.9
17 | Cc1cc(N2C(=O)C3(CCC3)N(c3ccc(OC4CCN(C)CC4)cc3)C2=S)ccc1C#N [Compound 17, 2-Methyl-4-(5-(4-((1-methylpiperidin-4-yl)oxy)phenyl)-8-oxo-6-thioxo-5,7-diazaspiro[3.4]octan-7-yl)benzonitrile] | 3.42 |  |  | 
18 | Cc1cc(N2C(=O)C3(CCC3)N(c3ccc(OC4CCN(C)CC4)nc3)C2=S)ccc1C#N [Compound 18, 2-Methyl-4-(5-(6-((1-methylpiperidin-4-yl)oxy)pyridin-3-yl)-8-oxo-6-thioxo-5,7-diazaspiro[3.4]octan-7-yl)benzonitrile] | 12.1 | 1.53 | 0.84 | 
19 | COc1cc(N2C(=O)C3(CCC3)N(c3ccc(OC4CCN(C)CC4)cc3)C2=S)ccc1C#N [Compound 19, 2-Methoxy-4-(5-(4-((1-methylpiperidin-4-yl)oxy)phenyl)-8-oxo-6-thioxo-5,7-diazaspiro[3.4]octan-7-yl)benzonitrile] | 9.87 | 27.4 | 21.4 | 
20 | COc1cc(N2C(=O)C3(CCC3)N(c3ccc(OC4CCN(C)CC4)nc3)C2=S)ccc1C#N [Compound 20, 2-Methoxy-4-(5-(6-((1-methylpiperidin-4-yl)oxy)pyridin-3-yl)-8-oxo-6-thioxo-5,7-diazaspiro[3.4]octan-7-yl)benzonitrile] | 1.4 | 3.65 | 1.69 | 
21 | N#Cc1ccc(N2C(=O)C3(CCC3)N(c3ccc(OC4CCNCC4)cc3)C2=S)cc1Cl [Compound 21, 2-Chloro-4-(8-oxo-5-(4-(piperidin-4-yloxy)phenyl)-6-thioxo-5,7-diazaspiro[3.4]octan-7-yl)benzonitrile] | 1.25 | 2.23 | 3.78 | 211
22 | CN1CCC(Oc2ccc(N3C(=S)N(c4ccc(C#N)c(Cl)c4)C(=O)C34CCC4)cc2)CC1 [Compound 22, 2-Chloro-4-(5-(4-((1-methylpiperidin-4-yl)oxy)phenyl)-8-oxo-6-thioxo-5,7-diazaspiro[3.4]octan-7-yl)benzonitrile] | 0.58 | 2.83 | 3.78 | 152.2
23 | N#Cc1ccc(N2C(=O)C3(CCC3)N(c3ccc(OC4CCNCC4)nc3)C2=S)cc1Cl [Compound 23, 2-Chloro-4-(8-oxo-5-(6-(piperidin-4-yloxy)pyridin-3-yl)-6-thioxo-5,7-diazaspiro[3.4]octan-7-yl)benzonitrile hydrochloride] | 0.54 | 3.19 |  | 
